Test results from US8741602B2, “Method for producing glucuronic acid conjugate using Saccharomyces cerevisiae” (Toyama Prefecture, priority 2010, dated 2014).
Like-named read-outs stand apart in the source and are kept apart here.

Key:
UGT1A1 = target: T1, UGT1A1 (Homo sapiens, UniProt P22309); conditions: fission yeast, Dragan et al.; cited from earlier work
T1 construct: host or cells: Schizosaccharomyces pombe
T1 sequence (P22309 26-533): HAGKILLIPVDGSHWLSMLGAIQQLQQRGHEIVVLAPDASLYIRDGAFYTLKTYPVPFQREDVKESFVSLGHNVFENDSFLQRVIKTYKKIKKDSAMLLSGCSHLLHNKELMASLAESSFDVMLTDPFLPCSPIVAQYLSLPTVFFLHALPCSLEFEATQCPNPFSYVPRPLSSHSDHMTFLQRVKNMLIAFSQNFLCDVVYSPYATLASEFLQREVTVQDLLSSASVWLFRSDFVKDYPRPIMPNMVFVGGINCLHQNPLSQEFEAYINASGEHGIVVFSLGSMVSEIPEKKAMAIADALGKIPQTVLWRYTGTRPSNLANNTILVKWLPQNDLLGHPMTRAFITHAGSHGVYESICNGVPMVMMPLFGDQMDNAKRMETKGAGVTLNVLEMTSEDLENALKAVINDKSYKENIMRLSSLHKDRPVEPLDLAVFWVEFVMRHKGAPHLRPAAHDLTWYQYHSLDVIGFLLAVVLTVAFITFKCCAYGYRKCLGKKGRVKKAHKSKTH

UGT1A6 [1] = target: T2, UGT1A6 (Homo sapiens, UniProt P19224); design: host or cells: Schizosaccharomyces pombe; conditions: fission yeast, Dragan et al.; cited from earlier work
T2 sequence (P19224 27-532): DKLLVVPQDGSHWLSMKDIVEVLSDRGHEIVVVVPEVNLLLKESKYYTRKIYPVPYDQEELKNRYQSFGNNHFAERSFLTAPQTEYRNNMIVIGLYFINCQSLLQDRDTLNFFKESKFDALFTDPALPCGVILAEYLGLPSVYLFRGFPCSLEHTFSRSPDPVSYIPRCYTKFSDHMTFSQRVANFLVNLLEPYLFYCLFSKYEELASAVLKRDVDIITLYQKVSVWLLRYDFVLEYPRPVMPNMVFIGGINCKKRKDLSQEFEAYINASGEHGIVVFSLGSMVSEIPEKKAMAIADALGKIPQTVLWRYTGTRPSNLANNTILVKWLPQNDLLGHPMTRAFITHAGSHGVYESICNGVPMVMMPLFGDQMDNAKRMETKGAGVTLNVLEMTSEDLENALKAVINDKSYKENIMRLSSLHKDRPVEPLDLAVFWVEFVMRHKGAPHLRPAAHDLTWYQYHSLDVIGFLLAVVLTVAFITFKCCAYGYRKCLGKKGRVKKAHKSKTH

UGT1A6 [2] = target: T2, UGT1A6; experiment: Glucuronide production in resting S. cerevisiae AH22 cells co-expressing UDPGDH and UGT1A6; type: cell-based; design: expressed in transfected cells; host or cells: Saccharomyces cerevisiae AH22; conditions: UGT1A6
Protocol: Each phase was analyzed by UPLC system.
Time course of conversion in the transformant with the highest activity of glucuronidation (AH22: pAUR/At.UDPGDH+pGYR/hUGT1A6) was examined (FIG. 6).
Glucose concentration dependence of conversion in the transformant with the highest activity of glucuronidation (AH22: pAUR/At.UDPGDH+pGYR/hUGT1A6) was examined (FIG. 7).

hUGT1A1 = target: T3, hUGT1A1 (Homo sapiens, UniProt P22309); experiment: Glucuronide production in resting S. cerevisiae AH22 cells co-expressing UDPGDH and UGT1A1; conditions: UGT1A1
T3 sequence (P22309 28-533): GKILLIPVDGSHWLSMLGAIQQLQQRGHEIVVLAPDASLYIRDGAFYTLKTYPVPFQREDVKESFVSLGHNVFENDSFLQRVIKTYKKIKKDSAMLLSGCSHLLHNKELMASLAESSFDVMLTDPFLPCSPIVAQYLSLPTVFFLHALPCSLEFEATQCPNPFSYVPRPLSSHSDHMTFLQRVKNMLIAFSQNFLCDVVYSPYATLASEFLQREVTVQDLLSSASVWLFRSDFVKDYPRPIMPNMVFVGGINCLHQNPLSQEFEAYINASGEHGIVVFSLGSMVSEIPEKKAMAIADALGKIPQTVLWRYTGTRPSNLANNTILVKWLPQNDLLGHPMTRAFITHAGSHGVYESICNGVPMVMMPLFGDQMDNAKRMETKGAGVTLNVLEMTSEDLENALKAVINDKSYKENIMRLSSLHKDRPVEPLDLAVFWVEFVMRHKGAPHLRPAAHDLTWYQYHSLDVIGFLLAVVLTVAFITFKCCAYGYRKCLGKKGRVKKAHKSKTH
Protocol: To confirm the production of 7-hydroxycoumarine glucuronide in the resting yeast cells containing UDPGDH and UGT, transformants were cultivated in selection medium at 30° C., 48 hrs, and the resultant yeast cells were suspended with appropriate buffer solution containing 0.1-1 mM 7-hydroxycoumarine and 1-8% (w/v) glucose. After incubation at 30° C., 24 hrs, 2-fold volume of chloroform:methanol (3:1, v/v) was added to reaction medium containing yeast cells. Centrifugation of extracts was separated to upper water and lower organic phase. Lower organic phase were evaporated and redissolved in 200 μl acetonitrile. Each phase was analyzed by UPLC system. Condition of analysis are described below; column: Cosmosil 2.5C18-MS-II (2.0 mm×100 mm, nacalai tesque), flow rate 0.5 ml/min, detection 320 nm, temperature 45° C. Condition of gradient elution: water-acetonitrile with 0.5% (v/v) trifluoroacetic acid, 10% (v/v) acetonitrile (4 min), 10-70% acetonitrile (6 min), 70-10% acetonitrile (2 min), 10% acetonitrile (4 min).
To confirm the production of quercetin glucuronide in the resting yeast cells containing UDPGDH and UGT (pAUR/At.UDPGDH+pGYR/hUGT1A1), transformants were cultivated in selection medium at 30° C., 48 hrs, and the resultant yeast cells were suspended with 0.1 M potassium phosphate buffer (pH 7.4) containing 0.2 mM quercetin and 8% (w/v) glucose. After incubation at 30° C., 24 hrs, 2-fold volume of chloroform:methanol (3:1, v/v) was added to reaction medium containing yeast cells. Centrifugation of extracts was separated to upper water and lower organic phase. Lower organic phase were evaporated and redissolved in 200 μl acetonitrile. Quercetin glucuronides in yeast cells was isolated and detected by WAKOPAK™ Navi C30-5 (3 mm×150 mm, Wako Chemical)-column-HPLC system with followed condition; flow rate; 0.4 ml/min, detection; 370 nm, temperature 37° C. Condition of gradient elution: water-acetonitrile with 0.5% (v/v) phosphoric acid, 18% (v/v) acetonitrile (10 min), 18-55% acetonitrile (10 min), 55% acetonitrile (5 min).
To compare the production ability of glucuronide in budding (Saccharomyces cerevisiae) and fission yeast (Schizosaccharomyces pombe) containing UDPGDH and UGT, several transformants (No. 4 in Table 2 and transformant with N-terminal modified UGT1A1) were selected for the assay. These transformants were cultivated in selection medium at 30° C., 48 hrs, and the resultant yeast cells were suspended with appropriate buffer solution containing 0.5 mM 4-methylumberrferone and 8% (w/v) glucose. After incubation at 30° C., 24 hrs, 2-fold volume of chloroform:methanol (3:1, v/v) was added to reaction medium containing yeast cells. Centrifugation of extracts was separated to upper water and lower organic phase. Lower organic phase were evaporated and redissolved in 200 μl acetonitrile. Each phase was analyzed by UPLC system.
Condition of analysis are described below; column: COSMOSIL™ 2.5C18-MS-II (2.0 mm×100 mm, Nacalai Tesque), flow rate 0.5 ml/min, detection 320 nm, temperature 45° C. Condition of gradient elution: water-acetonitrile with 0.1% (v/v) trifluoroacetic acid, 10% acetonitrile (4 min), 10-70% acetonitrile (6 min), 70-10% acetonitrile (2 min), 10% acetonitrile (3 min).

ratCYP1A1 and UGT1A6 = target: T4, ratCYP1A1 and UGT1A6 (UniProt P00185+P19224); experiment: Resting yeast cells co-expressing UDPGDH, UGT1A6 and rat CYP1A1; type: cell-based; conditions: 1 mM 7-ethoxycoumarine, 8% glucose, 30° C., 72 hrs
T4 construct: expressed in transfected cells; host or cells: Saccharomyces cerevisiae AH22
T4 sequence (P00185 2-524): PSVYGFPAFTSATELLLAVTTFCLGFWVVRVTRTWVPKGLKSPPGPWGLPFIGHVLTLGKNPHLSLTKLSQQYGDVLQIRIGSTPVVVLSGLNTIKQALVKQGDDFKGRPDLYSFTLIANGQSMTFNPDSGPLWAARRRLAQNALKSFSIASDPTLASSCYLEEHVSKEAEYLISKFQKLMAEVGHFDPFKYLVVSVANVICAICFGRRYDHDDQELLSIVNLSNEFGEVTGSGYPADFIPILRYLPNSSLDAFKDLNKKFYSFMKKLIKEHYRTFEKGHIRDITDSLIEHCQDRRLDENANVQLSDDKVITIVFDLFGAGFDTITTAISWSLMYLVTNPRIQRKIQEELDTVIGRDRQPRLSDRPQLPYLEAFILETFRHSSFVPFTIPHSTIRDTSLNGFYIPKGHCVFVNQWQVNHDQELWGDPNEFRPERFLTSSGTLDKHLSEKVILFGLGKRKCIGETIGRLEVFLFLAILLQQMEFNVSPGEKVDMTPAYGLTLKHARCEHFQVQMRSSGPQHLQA
T4 sequence (P19224 27-532): T2 sequence (P19224 27-532)
Text: In the precursor of most glucuronide, hydroxyl groups are introduced by P450-dependent monooxynenation. To analyze the structure and function of these xenobiotic metabolizing enzymes the expression system of several mammalian P450 and UGT isoforms was constructed in budding yeast cells, Saccharomyces cerevisiae AH22. This in vitro system is able to convert 7-ethoxycoumarine to its glucuronide via hydroxyl intermediate, 7-hydroxycoumarine (Ref 6). Yeast cells lack the ability of production of UDP-glucuronic acid (UDP-GlcUA) from UDP-glucose to synthesize the glucuronide in whole cells. To achieve the sequential production of hydroxyl intermediate and glucuronidation, co-expression yeast system containing UDPGDH, UGT, and P450 was constructed using combination of expression vectors (pAUR-At.UDPGDH/UGT1A6 and pGYR/ratCYP1A1, No. 5 in Table 2). […] Each phase was analyzed by UPLC system (FIG. 13).

CYP2D6 and UGT1A8 = target: T5, CYP2D6 and UGT1A8 (Homo sapiens, UniProt P10635); experiment: Resting yeast cells with UDPGDH, human UGT and human P450; type: cell-based; conditions: human P450 2D6 and human UGT1A8; 1 mM 7-ethoxycoumarine
T5 construct: expressed in transfected cells; host or cells: Saccharomyces cerevisiae
T5 sequence (P10635 whole entry): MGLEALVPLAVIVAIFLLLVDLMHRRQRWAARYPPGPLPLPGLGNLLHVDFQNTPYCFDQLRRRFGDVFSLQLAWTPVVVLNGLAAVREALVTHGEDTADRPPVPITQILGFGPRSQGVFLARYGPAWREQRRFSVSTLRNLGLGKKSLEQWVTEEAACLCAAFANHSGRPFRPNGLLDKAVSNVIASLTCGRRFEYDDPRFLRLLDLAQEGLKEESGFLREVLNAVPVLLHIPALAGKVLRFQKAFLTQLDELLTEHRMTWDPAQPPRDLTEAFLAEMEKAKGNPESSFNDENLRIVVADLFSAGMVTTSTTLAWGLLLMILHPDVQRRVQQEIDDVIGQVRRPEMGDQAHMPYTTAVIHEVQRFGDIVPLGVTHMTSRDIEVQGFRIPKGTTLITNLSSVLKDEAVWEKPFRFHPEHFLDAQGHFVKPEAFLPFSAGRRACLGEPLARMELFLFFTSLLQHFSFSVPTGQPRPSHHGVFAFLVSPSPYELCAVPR
Protocol: To achieve the sequential production of hydroxyl intermediate and glucuronidation, co-expression yeast system containing UDPGDH, UGT, and P450 was constructed using combination of expression vectors (pAUR-ratUDPGDH/UGT1A6 and pPYR/humanCYP).
Each phase was analyzed by UPLC system (FIG. 15 and Table 7).
FIG. 15 indicated reverse phase HPLC elution pattern of metabolites from 7-ethoxycoumarine using resting yeast cells containing UDPGDH, human UGT1A8, and human P450 2D6. […] Each hydroxyl intermediates further were metabolized to corresponding glucuronides by human UGT1A8.

[3] = budding yeast, 0.5 mM 4-methylumberrferone, 8% (w/v) glucose, 30° C., 24 hrs

| production ratio of glucuronide, budding yeast higher than fission yeast (UGT1A6 [2]) | production of glucuronide (UGT1A6 [2]; [3]) [µM/day] | production ratio of glucuronide, budding yeast higher than fission yeast (hUGT1A1) | production of glucuronide per biomass dry weight (hUGT1A1; budding yeast) [µmol/day/g dry weight] | production of glucuronide (hUGT1A1; [3]) [µM/day] | SMILES | production of glucuronide (UGT1A1) [µM/day] | production of glucuronide per biomass dry weight (UGT1A1) [µmol/day/g dry weight] | production of glucuronide (UGT1A6 [1]) [µM/day] | sequential P450-UGT metabolism (FIG. 13) (ratCYP1A1 and UGT1A6) | metabolites formed (FIG. 15) (CYP2D6 and UGT1A8) |
| --- | --- | --- | --- | --- | --- | --- | --- | --- | --- | --- |
| 50 | 195.7 | 10 | 2.6 | 20.2 | Cc1cc(=O)oc2cc(O[C@@H]3O[C@H](C(=O)O)[C@@H](O)[C@H](O)[C@H]3O)ccc12.O [4-metylumberrferone glucuronide, 4-methylumberrferone glucuronide] | 1.8 | 0.14 | 3.5 | – | – |
| – | – | – | – | – | CCOc1ccc2ccc(=O)oc2c1 [7-ethoxycoumarine] | – | – | – | deethylated by P4501A1 and the resultant 7-hydroxycoumarine (●) was glucuronidated by UGT1A6 to its glucuronide | metabolized to 7-hydroxycoumarine or 3-hydroxy-7-ethoxycoumarine by human P450 2D6 |
